Experimental findings from patent publication US20160303009A1, “HAIR CARE COMPOSITION” (CONOPCO, INC., D/B/A UNILEVER, priority 2013, published 2016) are described below.

The experiment relates to trypsin. Description: Trypsin activity, fluorescence assay (EnzChek Protease Assay Kit E6639). The format is biochemical. As to conditions: trypsin 100 μg/ml, 50 mM Tris-HCl pH 8.0. Here is the method:
Typsin activity was assessed using a commercial assay employing fluorescence measurement (EnzChek® Protease Assay Kit E6639 from Molecular Probes). The assayed solutions contained trypsin (100 μg/ml) and various amounts of the zinc salts in 50 mM Tris-HCl (pH 8.0).

Consider Zinc Gluconate, for which the Protease inhibition reads like this: (salt concentration 0.0001 wt %) −4%; (salt concentration 0.001 wt %) 10%; (salt concentration 0.01 wt %) 28%; (salt concentration 0.1 wt %) 94%; (salt concentration 1 wt %) 94%.

Take `[Cl-].[Cl-].[Zn+2]` [Zinc Chloride]: the Protease inhibition is, setting by setting: (salt concentration 0.0001 wt %) 7%; (salt concentration 0.001 wt %) 20%; (salt concentration 0.01 wt %) 69%; (salt concentration 0.1 wt %) 93%; (salt concentration 1 wt %) 96%.

Take `O.O.O.O.O.O.O.O=S(=O)([O-])[O-].[Zn+2]` [Zinc Sulfate Heptahydrate]: the Protease inhibition is 4% (salt concentration 0.0001 wt %); 14% (salt concentration 0.001 wt %); 33% (salt concentration 0.01 wt %); 92% (salt concentration 0.1 wt %); 93% (salt concentration 1 wt %).
